{"source": "patent US11578300B2", "about": "“Test apparatus” (Hitachi High-Tech Corporation, priority 2014, dated 2023)", "format_in_all_cases": "cell-based", "key": {"E. coli (ATCC25922)": {"system": "E. coli (ATCC25922)", "assay": "susceptibility test with respect to ampicillin by microscopic observation (bacteriological test apparatus)", "protocol": "After the bacterial suspension is introduced into the culture plate 18, the bacterial suspension is in a state of being mixed with the culture liquid which is included in each of the wells, and the temperature controller 16 is set to a temperature of approximately 35° C. Culture is performed by performing incubation such that the temperature of each of the wells in the culture plate 18 is in the vicinity of the set temperature. Then, while performing the incubation, the bacteria included in each of the wells are monitored through the microscopic observation optical system. The microscopic observation (monitoring) may be performed for a set period of time from the start of the incubation till the end thereof by continuously monitoring the state of bacterial growth. Otherwise, a suitable time may be set and monitoring is performed every set time thereof so as to be able to be compared with the monitored result at the time of starting the incubation. In addition, similar to the bacteriological test apparatus in the related art, the turbidity of each of the wells may be measured through the turbidity measurement optical system while incubating the culture plate 18. The measured result may be compared with the monitored result of the microscopic observation optical system. FIGS. 16A to 18C are diagrams illustrating results of a susceptibility test with respect to ampicillin of E. coli (ATCC25922) performed by using the bacteriological test apparatus of the present invention. FIGS. 16A to 18C are images obtained by culturing the E. coli in Mueller-Hinton culture mediums respectively containing ampicillin having the concentrations of 0 μg/mL, 2 μg/mL, and 16 μg/mL, performing image processing of a line extracting filter and the like onto microscopic images respectively captured after (a) 0 hours, (b) 3 hours, and (c) 24 hours from the start of culture, and performing binarization. The target objects appearing black in FIGS. 16A to 18C are the E. coli. […] FIG. 19 is a graph obtained by calculating the areas of the E. coli in the images of FIGS. 16A to 18C and plotting the areas thereof periodically. […] In this manner, it was possible to obtain the MIC with respect to the ampicillin of the used E. coli based on the graph achieved by monitoring the change in the areas of the bacteria in the images. It could be confirmed that the antimicrobial susceptibility test which requires overnight culture in the related art could be carried out in a short time by using the bacteriological test apparatus of the present invention."}, "E coli (ATCC35218)": {"system": "E coli (ATCC35218)", "assay": "susceptibility test of E coli treated with cefazolin by microscopic observation (bacteriological test apparatus)", "conditions": "for growth of the E coli in images / bacterial number in a microscopic image: after three hours; for bacterial number in a microscopic image: FIG. 22A; for average value of the areas per one bacterium: FIG. 22C", "protocol": "After the bacterial suspension is introduced into the culture plate 18, the bacterial suspension is in a state of being mixed with the culture liquid which is included in each of the wells, and the temperature controller 16 is set to a temperature of approximately 35° C. Culture is performed by performing incubation such that the temperature of each of the wells in the culture plate 18 is in the vicinity of the set temperature. Then, while performing the incubation, the bacteria included in each of the wells are monitored through the microscopic observation optical system. The microscopic observation (monitoring) may be performed for a set period of time from the start of the incubation till the end thereof by continuously monitoring the state of bacterial growth. Otherwise, a suitable time may be set and monitoring is performed every set time thereof so as to be able to be compared with the monitored result at the time of starting the incubation. In addition, similar to the bacteriological test apparatus in the related art, the turbidity of each of the wells may be measured through the turbidity measurement optical system while incubating the culture plate 18. The measured result may be compared with the monitored result of the microscopic observation optical system. FIGS. 20A-20D and 21A-21D are diagrams illustrating results of a susceptibility test of E coli (ATCC35218) treated with cefazolin performed by using the bacteriological test apparatus of the present invention. FIGS. 20A to 20D are microscopic images which are obtained by culturing the E. coli in Mueller-Hinton culture mediums respectively containing cefazolin having concentrations of 0 μg/mL, 0.5 μg/mL, 1 μg/mL, and 2 μg/mL, and captured after three hours from the start of culture. The target objects vaguely appearing in the images are the bacteria. FIGS. 21A to 21D are images obtained by respectively performing image processing onto the images of FIGS. […], performing edge detection, and performing binarization thereafter. The target objects appearing black in FIGS. 21A-21D are the E. coli. […] FIGS. 22A-22F are graphs obtained by extracting the feature values of the bacteria from the image of FIGS. 20A-20D. FIG. 22A is a graph illustrating the bacterial number in a microscopic image. […] FIG. 22B is a graph illustrating the areas of the bacteria in the microscopic image. FIG. 22C is a graph illustrating the average values of the areas per one bacterium obtained based on FIGS. 22A and 22B. […] As it also could be confirmed in FIGS. 21A-21D, the facts thereof indicate that the bacteria are elongated due to effect of cefazolin. FIGS. 22D to 22F are graphs respectively showing the perimeter length, the circularity, and the solidity (an index showing how the shape is close to a circle) per one bacterium. As the results of the elongated bacteria, it could be confirmed that the perimeter length increased in FIG. 22D, the circularity defined through […] was lowered in FIG. 22E, and the solidity defined through the area/the projection area is lowered in FIG. 22F."}, "[1]": {"system": "Enterococcus faecalis (ATCC29212)", "assay": "susceptibility test with respect to levofloxacin by microscopic observation (bacteriological test apparatus)", "conditions": "Mueller-Hinton culture medium, from areas of bacteria in images over time, read-out: minimum inhibitory concentration (MIC)", "protocol": "After the bacterial suspension is introduced into the culture plate 18, the bacterial suspension is in a state of being mixed with the culture liquid which is included in each of the wells, and the temperature controller 16 is set to a temperature of approximately 35° C. Culture is performed by performing incubation such that the temperature of each of the wells in the culture plate 18 is in the vicinity of the set temperature. Then, while performing the incubation, the bacteria included in each of the wells are monitored through the microscopic observation optical system. The microscopic observation (monitoring) may be performed for a set period of time from the start of the incubation till the end thereof by continuously monitoring the state of bacterial growth. Otherwise, a suitable time may be set and monitoring is performed every set time thereof so as to be able to be compared with the monitored result at the time of starting the incubation. In addition, similar to the bacteriological test apparatus in the related art, the turbidity of each of the wells may be measured through the turbidity measurement optical system while incubating the culture plate 18. The measured result may be compared with the monitored result of the microscopic observation optical system. FIGS. 10A to 13D are diagrams illustrating the results obtained by applying the present invention. […]"}}}
{"smiles": "CC1(C)S[C@@H]2[C@H](NC(=O)[C@H](N)c3ccccc3)C(=O)N2[C@H]1C(=O)O", "note": "[ampicillin]", "values": [{"measurement": "areas of the E. coli in the images", "setting": "E. coli (ATCC25922); ampicillin 2 μg/mL, FIG. 19 graph (ii)", "result": "increased with the lapse of time"}, {"measurement": "growth of the E. coli in images", "setting": "E. coli (ATCC25922); ampicillin 2 μg/mL, after 24 hours, FIG. 17C", "result": "grew after 24 hours"}, {"measurement": "shape of the E. coli in images", "setting": "E. coli (ATCC25922); ampicillin 2 μg/mL, after three hours, FIG. 17B", "result": "elongated states"}, {"measurement": "areas of the E. coli in the images", "setting": "E. coli (ATCC25922); ampicillin 16 μg/mL, FIG. 19 graph (iii)", "result": "seldom increased"}, {"measurement": "growth of the E. coli in images", "setting": "E. coli (ATCC25922); ampicillin 16 μg/mL, FIGS. 18A-18C", "result": "did not grow without being elongated"}]}
{"smiles": "Cc1nnc(SCC2=C(C(=O)O)N3C(=O)[C@@H](NC(=O)Cn4cnnn4)[C@H]3SC2)s1", "note": "[cefazolin]", "values": [{"measurement": "growth of the E coli in images", "setting": "E coli (ATCC35218); cefazolin 0.5 μg/mL, FIG. 21B", "result": "grew after three hours"}, {"measurement": "bacterial number in a microscopic image", "setting": "E coli (ATCC35218); cefazolin 0.5 μg/mL", "result": "increased through growth"}, {"measurement": "average value of the areas per one bacterium", "setting": "E coli (ATCC35218); cefazolin 0.5 μg/mL, compared to no antibacterial agent", "result": "the area increased"}, {"measurement": "average value of the areas per one bacterium", "setting": "E coli (ATCC35218); cefazolin 1 μg/mL", "result": "further increased"}, {"measurement": "growth of the E coli in images", "setting": "E coli (ATCC35218); cefazolin 1 μg/mL, FIG. 21C", "result": "did not quite grow after three hours and was elongated"}, {"measurement": "bacterial number in a microscopic image", "setting": "E coli (ATCC35218); cefazolin 1 μg/mL", "result": "did not quite grow"}, {"measurement": "average value of the areas per one bacterium", "setting": "E coli (ATCC35218); cefazolin 2 μg/mL", "result": "further increased"}, {"measurement": "growth of the E coli in images", "setting": "E coli (ATCC35218); cefazolin 2 μg/mL, FIG. 21D", "result": "did not quite grow after three hours and was elongated"}, {"measurement": "bacterial number in a microscopic image", "setting": "E coli (ATCC35218); cefazolin 2 μg/mL", "result": "did not quite grow"}, {"measurement": "perimeter length per one bacterium", "setting": "E coli (ATCC35218); elongated bacteria, concentration not given, FIG. 22D", "result": "increased"}, {"measurement": "circularity per one bacterium", "setting": "E coli (ATCC35218); elongated bacteria, concentration not given, FIG. 22E", "result": "lowered"}, {"measurement": "solidity per one bacterium", "setting": "E coli (ATCC35218); elongated bacteria, concentration not given, FIG. 22F", "result": "lowered"}]}
{"smiles": "C[C@H]1COc2c(N3CCN(C)CC3)c(F)cc3c(=O)c(C(=O)O)cn1c23", "note": "[levofloxacin]", "values": [{"measurement": "MIC", "setting": "[1]", "result": 1, "unit": "µg/mL"}]}
